Source: a melting point compilation (Tetko et al.; mined from patent text by program, amines drawn as free bases though some values may be those of a salt)

SMILES	melting point [°C]
CCNC1=NS(=O)N=C1NCCSCc1ccc(CN(C)C)o1 (centres undefined)	68 to 74
CCOC(=O)C(=Cc1cnccc1OC)N=[N+]=[N-]	92 to 95
O=C(Cl)N1CCNC1=O	150
CC(C)N1CCC(CNc2ccc(NS(C)(=O)=O)cc2C(=O)Nc2ccc(Cl)cn2)CC1	204 to 205
Cc1cn(-c2cccc(N)c2)cn1	117 to 119
CC(=O)C(C(C)=O)C(C(C)=O)C(C)=O	193 to 194
CCOC(=O)c1cnn(-c2c(Cl)cc(C(F)(F)F)cc2Cl)c1C	61 to 62
Nc1ccc(C2(C(=O)O)CC2C(=O)O)cc1 (centres undefined)	154 to 155
N=C(NO)C1=Cc2cc(O)c(O)cc2CC1	183 to 185
CC(=O)NC1CN(C)S(=O)(=O)c2sc(S(N)(=O)=O)cc21 (centres undefined)	252 to 253
CCCCCCN(C[C@@H]1CCCC[C@H]1CN(CCCCCC)C(=O)Nc1ccc(N(C)C)cc1)C(=O)Nc1ccc(N(C)C)cc1 (relative stereo)	112 to 117
NC(=O)N(O)C/C=C/c1cccc(C2=NOC(c3ccc(F)cc3)C2)c1 (centres undefined)	159 to 160
CNc1cccc2c1OC1(CC1)C2=O	98.2
C=C1CC2(C)C(CCC2(C)O)C2CCC3=CC(=O)CCC3(C)C12 (centres undefined)	155 to 157
Cc1cccc2c1-n1nnnc1SC2	174
CC(C)(C)OC(=O)NCc1ccc(C2(C)OCCO2)cc1	105 to 107
O=C(OC(=O)c1cccnc1)c1cccnc1	162 to 164
CC(=O)Nc1cccc(-c2ccnc3c(C#N)cnn23)c1	252 to 254
CC(C)NC1C(n2cccn2)=NNN1S (centres undefined)	80 to 85
C[C@@](N)(Cc1ccc(OC(F)(F)F)cc1)C(=O)Nc1cc(Cl)cc(Cl)c1	> 200
CC1OC(n2cnc3c(N)nc(F)nc32)C(O)C1O (centres undefined)	244 to 245
COC(=O)Cc1c(Cl)ncnc1N(C)C	30 to 32
CC1CCC(C(C)C)C(C(C#Cc2ccc(Cc3ccc(F)cc3)o2)N(O)C(N)=O)C1 (centres undefined)	154 to 156

SMILES	melting point [°C]
COc1ccc(N2CCN(c3c(C)c(C)c4c(c3C)CC(C)(C)O4)CC2)cc1	152 to 155
CCCCCCCCNP(N)(N)=O	102 to 114
O=[N+]([O-])c1ccc2[nH]cc(C3=CCNCC3F)c2c1 (centres undefined)	205 to 207
COc1cc(Cl)cc(CC#N)c1Cl	53 to 57
O=C1CNc2ccc(F)cc2O1	199
COC(=O)c1cccc(OCc2cc(Br)cs2)c1C(=O)OC	65
CCS(=O)(=O)C1=C(C(=O)c2ccc(S(C)(=O)=O)cc2Cl)C(=O)CCC1	157 to 161
C#CC1(O)C(C)CC2(CC1(C)C)OC(C)C(C)O2 (centres undefined)	79 to 83
COc1ccc(Br)c(Cl)c1C(=O)O	186 to 188
CCOC(=O)c1ccc(/C=C/C(=O)O)cn1	201 to 202
CCCCCCSc1ssc(=S)c1-c1cc(C(C)(C)C)c(O)c(C(C)(C)C)c1	110
CC(=O)OCCCCCC(=O)CC(=O)c1ccccc1	23 to 24
CC1(C)CC(Nc2nc(NC3CC(C)(C)NC(C)(C)C3)nc(N(CO)C3CC(C)(C)NC(C)(C)C3)n2)CC(C)(C)N1	201 to 202
CCCCCCCCCCCCOC(=O)NCCCCC(N)C(=O)O (centres undefined)	> 260
Cc1ncc(C(=O)O)cn1	166 to 170
CCC1(CC)CC(=O)c2cc(C#N)ccc2O1	71 to 72
COc1cc(SC2SCC(OC(C)=O)C(OC(C)=O)C2OC(C)=O)cc(OC)c1OC (centres undefined)	101
CCOC(=O)[C@@H](O)CCNC(=O)[C@@H](CSC(C)=O)Cc1ccccc1C	48 to 52
CONC(C(C)=O)c1cc(-n2c(=O)cc(C(F)(F)F)n(C)c2=O)ccc1Cl (centres undefined)	160 to 161
CC(C)(C)Oc1ccc(C(=O)NCCCCCCCNC(=O)c2ccc(OC(C)(C)C)cc2)cc1	135 to 136
CC(C)(C)OC(=O)N1CCC(C(=O)c2cccs2)CC1	154 to 156
CN(C)C(=O)CCCOc1ccc2c(c1)C[C@@H](NC(=O)OC(C)(C)C)CC2	97 to 101
COC(=O)[C@H]1[C@H](C(=O)OC)C1(Br)C=O (some centres undefined)	52

The next lines start with the values.

melting point [°C]	SMILES
177 to 179	COc1ccc(-c2nc(Sc3ccncc3)[nH]c2-c2ccc(OC)cc2)cc1
152 to 153	COc1cnc(NCCNCC(O)COc2ccccc2)c2ccccc12 (centres undefined)
229 to 233	COC(=O)c1cc2cc(OC)c(OC)cc2c(-c2ccnc(N3C(=O)CCc4ccccc43)c2)c1C(=O)OC
183 to 184	COc1ccc(-c2cccn2-c2ccc(S(C)(=O)=O)cc2)cc1
200 to 202	O=C1NCCN1C(c1ccccc1)c1ccccc1
203 to 204	CCCSc1sc(C(N)=O)c2c1-c1nc(-c3ccccc3)sc1CC2
94 to 97	CCOC(=O)/C=C/c1ccc(OCCN2CCCC2=O)cc1OCc1ccccc1
225	CCc1ccc2c(c1)C=Cc1cc(O)ccc1C2c1cn(-c2ccnc(NCC(=O)Nc3nc(CC(=O)O)cs3)n2)c(=O)[nH]c1=O (centres undefined)
244 to 250	N#CC(C(=O)Nc1ccccc1)C(=O)c1nn(-c2ccccc2)c2c1CSc1ccc(C(=O)NCC(=O)O)cc1-2 (centres undefined)
113 to 115	Cc1cccc(-c2[nH]c(C(C)C)nc2-c2ccc(F)c(-c3ccc(S(C)(=O)=O)cc3)c2)n1
68	CCOC(=O)Cc1ccc(-c2ccc(OC)cc2)cc1
207	O=C(O)COc1ccc2c(-c3ccc(Cl)cc3)noc2c1
118 to 119	CCOC(=O)n1c(C(=O)c2ccccc2)c(N)c2c(Cl)cccc21
169 to 170	COc1cc2ccnc(C(S)(C#N)CCC(=O)O)c2cc1OC (centres undefined)
> 250	Clc1ccc2c(NCC=CCNc3ccnc4cc(Cl)ccc34)ccnc2c1
271	Cc1nc2cc(C(c3cccc(Cl)c3)n3ccnc3)ccc2[nH]c1=O (centres undefined)
122 to 123	CCOC(=O)N1CCOC(c2ccccc2)(c2ccccc2)CC1
123 to 125	CN(C=O)C1CCC(O)(c2ccc(Cl)c(Cl)c2)c2ccccc21 (centres undefined)
142 to 144	O=C(CCS(=O)(=O)CCOCCc1ccccc1)NCCc1ccc(O)c2[nH]c(=O)sc12
199 to 200	O=C(O)CCCc1oc(-n2cnc3ccccc32)nc1-c1ccc(Cl)cc1
183	CCNC(=O)c1ccc(-c2ccc(-c3ccccc3)c(-c3ccc4c(c3)C(C)(C)CCC4(C)C)c2)cc1
118 to 120	N#Cc1ccc(-c2ccc3oc(CCN)cc3c2)cc1
73 to 77	O=C1c2cc(O)ccc2SCC1Cc1ccccc1 (centres undefined)
204	CC(C)(C)c1cc(C2CC(=O)N(c3ccccc3)C2=O)cc(C(C)(C)C)c1O (centres undefined)
78 to 79	O=C(OCc1ccc(F)cc1)c1cccc(C(=O)OCc2ccc(F)cc2)c1
290 to 291	Cc1nn(-c2ccc(NC=C3C(=O)NC(=O)c4ccc(Br)cc43)cc2)c(C)c1Cl
139 to 141	CCc1c(OCc2ccccc2)nc(OCc2ccccc2)nc1C(C#N)c1cc(C)cc(C#N)c1 (centres undefined)

melting point [°C]	SMILES
180 to 182	COc1ccc(C)c(Nc2c(C#N)cnc3cc(Cl)c([N+](=O)[O-])cc23)c1
192 to 194	CC(c1ccc(F)c(F)c1F)n1ncc(-c2ccc(S(N)(=O)=O)cc2)c(-c2ccc(F)cc2)c1=O (centres undefined)
163 to 164	CCOC(=O)c1c(Cn2nccn2)nc2cc(OC)c(OC)cc2c1-c1ccc(OC)c(OC)c1
79 to 81	Cc1onc(-c2ccccc2Cl)c1CCC(=O)O
127	COc1cc(Nc2nccc(Nc3ccc4c(ccn4S(=O)(=O)c4ccccc4)c3)n2)cc(OC)c1OC
212 to 215	c1ccc(C2(c3ccccc3)Oc3ccc(-c4nnn[nH]4)cc3O2)cc1
112 to 114	Fc1cccc(Cl)c1-c1nn(-c2ccccc2Cl)c(=S)o1
96 to 98	CCC(CC)Oc1cc(C)nc(Oc2c(C)cc(C)cc2C)c1N
175	CN(C(=O)CN(C(=O)CNC(=O)Nc1cccc(S(N)(=O)=O)c1)c1ccccc1)c1ccccc1
266 to 267	CC(=O)Nc1nc2c(s1)-c1nn(C(=O)c3ccccc3)cc1CC2
164 to 165	COCc1nc(C(C)(C)O)c(C(=O)O)n1Cc1ccc(-c2ccccc2C(=O)O)cc1
110 to 111	CCOC(OCC)c1cc(Nc2ccc(OC)cc2)c(F)c(-c2ccc(Cl)cc2)n1
236 to 237	Cc1ccnc(C(=O)c2[nH]c3ccc(Cl)cc3c2CC(=O)O)c1C
78	CCOC(=O)C(C)Oc1ccc(Nc2ccc(C(F)(F)F)cc2N)cc1 (centres undefined)
69 to 70	COC(=O)c1cc(Cl)c2c(c1Cl)OC(c1ccccc1)(c1ccccc1)O2
145	O=C(NCCc1ccccc1)c1ccccc1-c1ccccc1CNS(=O)(=O)c1cccc([N+](=O)[O-])c1
137 to 139	CC(C(=O)O)c1ccc2onc(-c3ccc(Cl)cc3)c2c1 (centres undefined)
157 to 158	COc1cccc2nc(-c3cc(C)c(OCCN4CCCC4)c(C)c3)[nH]c(=O)c12
218	CS(=O)(=O)c1ccc(C2=C(c3ccc(-c4cscn4)cc3)C(=O)OC2)cc1F
81 to 83	COC(=O)c1cc(C)c(OCCNC(=O)C2Cc3ccccc3N2S(=O)(=O)c2ccc(-c3cccc(C(F)(F)F)c3)cc2)c(C)c1 (centres undefined)
209 to 210	O=C(O)c1cc(-n2c(-c3ccccc3)cc3c2CCCC3)cc(Br)c1O
145	O=C(c1c(F)cccc1F)n1c(-c2c(F)cccc2F)nc2ccccc21
149 to 154	COc1cc2c(c3c1OC(C)(C)C3)C(c1cccc(-c3ccc(NC(=O)C(F)(F)F)cc3)c1)=NC(C)(C)C2
88 to 89	COc1cccnc1Oc1cccc(C#N)c1
185 to 187	COC(=O)c1ccc2c(c1)c(Cc1ccc(C(=O)NS(=O)(=O)c3ccccc3C)cc1OC)cn2C
198 to 200	O=C(c1ccccc1)N1CCc2[nH]c3c(-c4ccccc4)cccc3c2CC1
